The NIST ThermoML archive (doi:10.1021/je0503204)

Settings: Liquid; for speed of sound: Pulse-echo method

CCCCCCCl [1-chlorohexane]
Settings | mass density, 353.15 K [kg/m3] | mass density, 373.15 K [kg/m3] | mass density, 393.15 K [kg/m3] | mass density, 413.15 K [kg/m3] | speed of sound, 353.15 K [m/s] | speed of sound, 373.15 K [m/s] | speed of sound, 393.15 K [m/s] | speed of sound, 413.15 K [m/s]
100 kPa | – | 802.2 | 780.7 | 759.1 | – | 922.9 | 853.3 | 784
5000 kPa | – | 809.3 | 789.2 | 769.6 | – | 957 | 893.8 | 829.4
9910 kPa | – | 815.2 | 796.7 | 777.6 | – | 989.6 | 928.6 | 867.7
19720 kPa | – | 827.4 | 810.5 | 793.3 | – | 1050.4 | 993.2 | 938.1
29530 kPa | – | 838.3 | 822.6 | 806.8 | – | 1105.8 | 1051.8 | 1001.1
39340 kPa | – | 848 | 833.3 | 818.6 | – | 1156.5 | 1105.2 | 1057.7
49150 kPa | – | 856.9 | 843 | 829.2 | – | 1203.2 | 1154.2 | 1109
58960 kPa | – | 865 | 851.8 | 838.7 | – | 1246.3 | 1199.4 | 1155.8
68770 kPa | – | 872.5 | 859.8 | 847.4 | – | 1286.9 | 1241.4 | 1198.9
78580 kPa | – | 879.4 | 867.2 | 855.3 | – | 1324.8 | 1280.8 | 1239.1
88390 kPa | – | 885.9 | 874.1 | 862.7 | – | 1360.8 | 1318 | 1276.9
98200 kPa | 903.8 | 891.9 | 880.6 | 869.5 | 1441.9 | 1395.1 | 1353.3 | 1312.8
108000 kPa | 909.2 | 897.6 | 886.6 | 875.8 | 1474 | 1427.9 | 1387.2 | 1347.4
117800 kPa | 914.3 | 903 | 892.3 | 881.8 | 1504.7 | 1459.6 | 1419.7 | 1380.6
127600 kPa | 919.1 | 908.1 | 897.6 | 887.4 | 1534.3 | 1490.1 | 1451.2 | 1413
137400 kPa | 923.7 | 912.9 | 902.7 | 892.7 | 1562.7 | 1519.6 | 1481.6 | 1444.5
147200 kPa | 928.1 | 917.5 | 907.5 | 897.8 | 1590.1 | 1548.1 | 1511.1 | 1475.2
157100 kPa | 932.3 | 921.9 | 912.1 | 902.5 | 1616.4 | 1575.5 | 1539.5 | 1504.9
166900 kPa | 936.3 | 926.1 | 916.4 | 907.1 | 1641.8 | 1601.7 | 1566.9 | 1533.7
176700 kPa | 940.1 | 930.1 | 920.6 | 911.4 | 1666.1 | 1626.5 | 1592.8 | 1560.9
186500 kPa | 943.8 | 934 | 924.6 | 915.6 | 1689.4 | 1649.5 | 1617.2 | 1586.4
196300 kPa | 947.4 | 937.7 | 928.4 | 919.5 | 1711.4 | 1670.6 | 1639.7 | 1609.7
